# Patent publication US8802240B2, “Uses of formulations of thyroid hormone analogs and nanoparticulate forms thereof to increase chemosensitivity and radiosensitivity in tumor or cancer cells” (Nanopharmaceuticals LLC, priority 2011, dated 2014)
# Key:
# [1] = system: human medullary carcinoma of the thyroid (MTC) xenograft; assay: MTC xenograft in nude mice; conditions: mouse, in vivo
# Source text: Water and food were provided ad libitum.
# [2] = system: GL261 cells; assay: GL261 apoptosis and necrosis with or without 5 Gy x-rays; assay type: cell-based, murine; conditions: Tetrac 2 μM, T-NP 0.2 μM
# Procedure: Apoptotic cells were identified using TUNEL staining (Terminal deoxynucleotidyl transferase dUTP nick end labeling (TUNEL)) (staining kit obtained from Oncor, Gaithersberg, Md.; ApoTag) (See Gavrieli et al., J. Cell. Biol. 1992. 119:493-501). The staining procedures were carried out as instructed by the manufacturer. Gill's hematoxylin was used as a counterstain to discriminate negative cells (purple) from positive cells (brown). Negative controls were performed by omitting the terminal deoxynucleotidyl transferase enzyme. Positive controls were performed by incubating cells with Dnase I (3000 U/ml) in 50 mM Tris-HCl, pH 7.5, in 1 mg/ml bovine serum albumin (BSA) for 10 min at ambient temperature.
# To perform FCM, a total of 10^6 adherent cells were trypsinized and washed once in ambient temperature PBS. They were then fixed in 70% ethanol, and stored overnight, at 4° C. […] Cells were left overnight at 4° C. in the dark and were then analyzed on a Coulter fluorescence-activated cell sorter (Coulter Electronics, Hialeah, Fla.). Cells were excited with a single 488 nm argon laser and the resulting fluorescence was detected using a 585 nm filter. Linear red-orange fluorescence (FL3) data were collected in list format and 10,000 events were collected. The distribution of cells within the cell cycle (sub-G1, G1, S, and G2+M phases) was determined using a Coulter software program.
# [3] = system: human MTC cells; assay: RNA microarray of h-MTC cells; assay type: cell-based
# [4] = system: SKN-SH/R cells; assay: Senescence and apoptosis in drug resistant cells; assay type: cell-based; conditions: 24 h
# Procedure: In FIG. 16A, SKN-SH/R cells were subjected to treatment doxorubicin (Dox) alone, Tetrac alone, or the combination of both for 24 h. Expression of p21/WAF1, cleaved caspase-3 (Cl-Casp-3) and beta action were measured by Western blot using specific antibodies. In FIG. 16B, the cells were seeded in 24 well plates and treated as mentioned above and expression of the senescence associated beta galactosidase (SA-β-Gal.) was assayed as described in the methods section. In FIG. 16C, the cells were seeded on cover slips and treated with the drugs as above for 24 h, after which they were fixed and stained with Hoechst and the percentage of positive cells graphed. The data represent average of 3 determinations±SE.
smiles,measurement,setting,value
"O=C(O)Cc1cc(I)c(Oc2cc(I)c(O)c(I)c2)c(I)c1 [Tetrac, tetraiodothyroacetic acid]",mortality (in words),[1],no mortality
same,"effect on necrosis, necrotic percentage at 120 hours (in words)",[2],essentially additive
same,effect plus 5 Gy of x-rays on apoptosis (in words),[2],supra-additive
same,expression of VEGFA (in words),[3],significantly decreased
same,"expression of genes associated with induction of apoptosis: CASP2, DFFA, FAF1, CASP8AP2 (in words)",[3],caused expression
same,expression of thrombospondin (THBS1) gene (in words),[3],increase
same,"doxorubicin-induced proliferation arrest (p21/WAF1), SA-β-Gal and cell death (in words)",[4],dramatically enhanced
